Data: patent publication US20260151403A1, “NEK7 DEGRADERS AND METHODS OF USE THEREOF” (Captor Therapeutics S.A., priority 2022, published 2026)

Columns and labels:
[1] = biological target: T1, [NEK7]-[compound of formula (I)]-[CRBN/DDB1] complex (Homo sapiens, UniProt Q8TDX7+Q96SW2); experiment: AlphaLISA dose response ternary complex formation assay; type: binding; details: 1 μM compound; normalized to maximum signal of Compound 2 (positive control) and DMSO background; read-out: Normalized AlphaLISA ternary complex average signal at 1 μM molecule
Outline: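 Biotinylated NEK7 (200 nM) on streptavidin donor beads and 6×His-CRBN/Strep-DDB1 (200 nM) on anti-His acceptor beads, each at 40 μg/ml and preincubated 30 min, then mixed and added to compound in HBS pH 7.4, 0.1% Tween-20, 1 mM DTT, 2% DMSO. After 30 min at 25 °C, AlphaLISA signal was read (ex 680/em 615 nm) and normalised to DMSO background and maximal Compound 2 signal.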

[2] = biological target: T1, [NEK7]-[compound of formula (I)]-[CRBN/DDB1] complex; experiment: HTRF ternary complex assay; type: binding; details: dose-response, 180 min at 25° C.; read-out: HTRF ternary complex Average pEC50 by molecule (converted)
Outline: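 Mix of 24 nM NEK7, 52.8 nM 6×His-CRBN/Strep-DDB1, 3 nM streptavidin-Eu cryptate and 6.67 nM anti-6×His-d2 in PPI Europium detection buffer with 1 mM DTT, dose-response compound, 0.5% DMSO, 180 min at 25° C. TR-FRET (665/620) read, normalized to DMSO background, Hill-slope fit gave EC50/pEC50.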

[3] = system: IL-1β release (NLRP3 inflammasome activation); experiment: NLRP3 inflammasome activation assay, IL-1β release (ELISA) in human PBMC-derived macrophages; type: cell-based; details: 10 μM, 24 h pre-treatment, then LPS 3 h and nigericin 1 h
Protocol: (§1) Macrophages were differentiated from human PBMCs isolated from buffy coats from healthy donors.
(§2) Buffy coats were diluted 1:1 (v/v) with DPBS (Sigma-Aldrich) in falcon tubes. After reconstitution, suspension was carefully layered on Histopaque-1077 solution (Sigma-Aldrich) and centrifuged (760×g, RT, 20 min; Brakes Off). PBMCs were collected and washed with DPBS (3× at 350×g, RT, 8 min and 1× at 200×g, RT, 10 min; Brakes On). Subsequently, cells were resuspended in appropriate volume of RPMI 1640 medium (Gibco) supplemented with 10% of heat-inactivated FBS (Gibco) and 1% of Penicillin-Streptomycin Solution 100x (Biowest). Cell viability was measured using trypan blue solution (Sigma-Aldrich).
(§3) 10×10^6 of PBMCs per well were seeded on 6-well plates in complete medium supplemented with 10 ng/ml of M-CSF growth factor (R&D Systems). Differentiation was conducted for a week with medium replacement every 2-3 days. Differentiation of PBMCs into mature macrophages was confirmed by microscopic evaluation and FACS surface staining for the following markers: CD11b, CD14, CD16 (BD Pharmingen). Differentiated macrophages were subjected on NLRP3 inflammasome activation assay.
(§4) Human PBMC-derived macrophages were pre-treated for 24 h with exemplary compounds at the specific concentrations. Dilutions of tested compound were prepared in DMSO. Afterwards cells were primed with 1 μg/ml of LPS (Invivogen) for 3 h and NLRP3 inflammasomes were activated with 5 μM of nigericin solution (Invivogen) for 1 h. Supernatants were centrifuged and stored for ELISA assays and cell lysates were prepared for Western blotting analysis.
(§5) IL-1β and IL-18 level was quantified using ELISA assays (R&D Systems) according to the manufacturer's protocol. 96-well plates were coated overnight with appropriate capture antibodies. Plates were blocked and incubated at RT for a minimum of 1 h. Samples or standards were added and incubated for 2 h in RT. Next, biotinylated anti-human IL-1β or IL-18 detection antibodies were added for 2 h in RT. Strepatividin-HRP solution was added for 20 min of incubation. Subsequently, substrate solution was added for 20 min. Between each step washing procedure was performed. The reaction was stopped, and optical density was determined using CLARIOstar Multimode Plate reader set to 450 nm with wavelength correction set to 570 nm. The analysis was performed with GraphPad Prism Software and Excel spreadsheet.
(§6) To evaluate compound effect on inflammasome activation (measured as IL-1β and IL-18 release), human PBMC-derived macrophages were treated with individual compounds for 24 h prior to inflammasome activation. As shown in the Table 4 and in FIGS. 2A and 2B, after 24 h of pre-treatment with exemplary compounds, a dose-dependent decrease of cytokines level was noted.

[4] = system: IL-18 release (NLRP3 inflammasome activation); experiment: NLRP3 inflammasome activation assay, IL-18 release (ELISA) in human PBMC-derived macrophages; type: cell-based; details: 10 μM, 24 h pre-treatment, then LPS 3 h and nigericin 1 h
Protocol: as §1, §2, §3, §4, §5, §6

T1 sequence (Q8TDX7 whole entry): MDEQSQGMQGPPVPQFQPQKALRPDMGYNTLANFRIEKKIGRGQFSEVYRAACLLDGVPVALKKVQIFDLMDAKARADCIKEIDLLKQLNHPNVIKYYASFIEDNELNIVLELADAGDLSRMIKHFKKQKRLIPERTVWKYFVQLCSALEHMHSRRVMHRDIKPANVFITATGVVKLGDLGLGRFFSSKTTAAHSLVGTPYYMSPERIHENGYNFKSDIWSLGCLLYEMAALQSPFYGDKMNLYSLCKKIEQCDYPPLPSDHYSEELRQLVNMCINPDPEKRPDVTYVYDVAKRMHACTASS
T1 sequence (Q96SW2 whole entry): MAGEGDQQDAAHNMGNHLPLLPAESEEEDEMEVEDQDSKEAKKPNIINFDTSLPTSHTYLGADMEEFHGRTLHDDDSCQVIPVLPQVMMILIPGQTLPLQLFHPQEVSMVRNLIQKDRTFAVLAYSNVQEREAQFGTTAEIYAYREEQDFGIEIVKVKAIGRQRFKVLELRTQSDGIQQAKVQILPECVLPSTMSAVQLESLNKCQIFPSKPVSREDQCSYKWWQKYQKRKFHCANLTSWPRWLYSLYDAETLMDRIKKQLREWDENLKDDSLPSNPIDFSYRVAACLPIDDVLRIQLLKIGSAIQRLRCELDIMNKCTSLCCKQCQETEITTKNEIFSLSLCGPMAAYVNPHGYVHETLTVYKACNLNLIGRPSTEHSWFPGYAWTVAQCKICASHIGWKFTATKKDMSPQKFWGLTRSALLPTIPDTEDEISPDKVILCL
T1 sequence (Q16531 whole entry partner): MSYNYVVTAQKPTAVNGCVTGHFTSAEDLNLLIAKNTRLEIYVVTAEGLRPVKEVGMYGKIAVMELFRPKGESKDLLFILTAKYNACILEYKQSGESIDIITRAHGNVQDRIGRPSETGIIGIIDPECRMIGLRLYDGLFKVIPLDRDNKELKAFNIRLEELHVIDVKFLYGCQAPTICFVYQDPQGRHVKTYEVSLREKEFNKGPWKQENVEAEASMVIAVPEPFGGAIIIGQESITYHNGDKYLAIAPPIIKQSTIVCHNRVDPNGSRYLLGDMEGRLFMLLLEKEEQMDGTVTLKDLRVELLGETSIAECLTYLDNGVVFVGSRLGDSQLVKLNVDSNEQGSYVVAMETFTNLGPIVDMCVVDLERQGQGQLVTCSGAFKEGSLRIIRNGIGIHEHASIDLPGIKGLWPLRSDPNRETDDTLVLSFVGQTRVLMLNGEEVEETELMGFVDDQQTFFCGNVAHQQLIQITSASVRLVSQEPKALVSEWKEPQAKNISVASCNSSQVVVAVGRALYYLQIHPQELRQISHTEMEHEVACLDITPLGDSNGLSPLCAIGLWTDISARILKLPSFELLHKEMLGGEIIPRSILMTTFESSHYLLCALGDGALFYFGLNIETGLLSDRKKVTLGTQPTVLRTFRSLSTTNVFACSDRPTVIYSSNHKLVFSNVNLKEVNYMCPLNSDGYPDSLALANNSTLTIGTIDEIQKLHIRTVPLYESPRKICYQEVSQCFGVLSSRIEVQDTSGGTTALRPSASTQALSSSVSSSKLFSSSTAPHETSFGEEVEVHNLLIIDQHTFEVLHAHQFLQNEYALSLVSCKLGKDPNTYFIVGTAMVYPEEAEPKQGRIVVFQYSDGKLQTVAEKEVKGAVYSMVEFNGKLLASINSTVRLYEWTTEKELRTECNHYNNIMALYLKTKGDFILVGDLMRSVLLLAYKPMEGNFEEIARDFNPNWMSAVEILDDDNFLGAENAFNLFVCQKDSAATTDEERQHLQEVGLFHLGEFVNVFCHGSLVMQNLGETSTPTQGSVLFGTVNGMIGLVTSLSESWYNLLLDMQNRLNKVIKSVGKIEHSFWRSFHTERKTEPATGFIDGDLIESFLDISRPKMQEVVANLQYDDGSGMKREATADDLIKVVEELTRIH

Compound	activation at 1 µM [1]	EC50 [2]	Level of released IL-1β (% of DMSO control) [3]	Level of released IL-18 (% of DMSO control) [4]
O=C1CCC(N2Cc3cc(-c4ccccn4)ccc3C2=O)C(=O)N1 (stereo not drawn) [2(2), 3-(1-oxo-5-(pyridin-2-yl)isoindolin-2-yl)piperidine-2,6-dione]	> 80%	316 to 1000 nM		
CC1c2cc(C3CCCCN3)ccc2C(=O)N1C1CCC(=O)NC1=O (stereo not drawn) [Compound 25, 3-(3-methyl-1-oxo-5-(piperidin-2-yl)isoindolin-2-yl)piperidine-2,6-dione]	> 80%	316 to 1000 nM	A (Levels of released cytokines ≤ 25%)	A (Levels of released cytokines ≤ 25%)
O=C1CCC(N2Cc3cc(C4CCCCN4)ccc3C2=O)C(=O)N1 (stereo not drawn) [Compound 2, 3-(1-oxo-5-(piperidin-2-yl)isoindolin-2-yl)piperidine-2,6-dione]	> 80%	316 to 1000 nM	B (Levels of released cytokines > 25% and ≤50%)	A (Levels of released cytokines ≤ 25%)
O=C1CCC(N2Cc3cc(-c4ccc(-c5ccccc5)cn4)ccc3C2=O)C(=O)N1 (stereo not drawn) [4(2), 3-(1-oxo-5-(5-phenylpyridin-2-yl)isoindolin-2-yl)piperidine-2,6-dione]	> 80%	100 to 316 nM	D (Levels of released cytokines ≥ 75%)	B (Levels of released cytokines > 25% and ≤50%)
O=C1CCC(N2Cc3cc(C4CCCCN4)c(F)cc3C2=O)C(=O)N1 (stereo not drawn) [Compound 23, 3-(6-fluoro-1-oxo-5-(piperidin-2-yl)isoindolin-2-yl)piperidine-2,6-dione]	< 10%	> 3160 nM		
CC1c2cc(C3CCCCO3)ccc2C(=O)N1C1CCC(=O)NC1=O (stereo not drawn) [Compound 64, 3-(3-methyl-1-oxo-5-(tetrahydro-2H-pyran-2-yl)isoindolin-2-yl)piperidine-2,6-dione]	> 80%	316 to 1000 nM	A (Levels of released cytokines ≤ 25%)	A (Levels of released cytokines ≤ 25%)
Cc1c(C2CCCCN2)ccc2c1CN(C1CCC(=O)NC1=O)C2=O (stereo not drawn) [Compound 19, 3-(4-methyl-1-oxo-5-(piperidin-2-yl)isoindolin-2-yl)piperidine-2,6-dione]	< 10%	> 3160 nM	C (Levels of released cytokines > 50% and <75%)	C (Levels of released cytokines > 50% and <75%)
